Experimental data taken from article PMC5663708, “Novel Benzylidene Thiazolidinedione Derivatives as Partial PPARγ Agonists and their Antidiabetic Effects on Type 2 Diabetes” (Scientific Reports, 2017).

Assays:
[1] = Human liver microsomal stability; format: in vitro ADME; settings: 37.5 °C, LM conc 0.4 mg/mL; for half-life: read-out: T1/2,int
Method: (§1) The oral bioavailability of compounds in terms of Caco-2 and MDCK-II permeability and the P-glycoprotein (P-gp) efflux ratio were assessed. The in vitro intrinsic half-life (T1/2,int) and the apparent intrinsic clearance (CLint,app) of compounds were also measured after incubation with human liver microsomes at 37.5 °C[65]. […] Quantification was done by LC-MS/MS. P-gp substrate activity was assessed by the efflux ratio (the ratio of Papp in the B-to-A direction over that in the A-to-B direction). […] P-gp is an ATP-dependent transporter on the apical plasma membrane of enterocytes that functions to limit the entry of drugs into the cell.
Highly cleared compounds in vitro are likely to be rapidly cleared in vivo resulting in a short duration of action.

[2] = tested on: HepG2 human hepatocellular liver carcinoma cell line; assay: XTT in vitro hepatotoxicity assay on HepG2 cells; format: cell-based; settings: at 1000 μM
Method: (§2) HepG2 cells are considered as a useful model to study in vitro xenobiotic metabolism and liver toxicity. In particular, HepG2 cells are able to activate and detoxify xenobiotics and, they are the reason why these cells are intensively used in toxicology[58],[59]. Hepatotoxicity was determined using the XTT assay.
(§3) The final DMSO concentration was set at <0.1%. Rosiglitazone and Pioglitazone were used as positive controls. IC50 values and cell viability % were calculated.

MDCK-II monolayers = assay: In vitro MDCK-II permeability; format: in vitro ADME
Method: as §1, with “assessed.” for “assessed. The in vitro intrinsic half-life (T1/2,int) and the apparent intrinsic clearance (CLint,app) of compounds were also measured after incubation with human liver microsomes at 37.5 °C[65].”

Caco-2 monolayers = assay: In vitro Caco-2 permeability; format: in vitro ADME
Method: as §1

[3] = XTT in vitro hepatotoxicity assay on HepG2 cells; format: cell-based, human; settings: human, highest tested concentration (1000 μM), read-out: cell viability
Method: as §2, §3

[4] = In vitro MDCK-II permeability; format: in vitro ADME; settings: dog; for Papp A→B at 150 min, 2 µM / Papp B→A at 150 min, 2 µM: pH 7.4/7.4, n = 2; for Papp at 150 min, 2 µM: based on Papp,A-B, read-out: Permeability Rank
Method: as §1, with “assessed.” for “assessed. The in vitro intrinsic half-life (T1/2,int) and the apparent intrinsic clearance (CLint,app) of compounds were also measured after incubation with human liver microsomes at 37.5 °C[65].”

[5] = In vitro Caco-2 permeability; format: in vitro ADME; settings: human; for Papp A→B at 150 min, 2 µM / Papp B→A at 150 min, 2 µM: Caco-2, 2 µM, pH 6.5/7.4, n = 2; for Papp at 150 min, 2 µM: Caco-2, based on Papp,A-B, read-out: Permeability Rank
Method: as §1

P-gp = assay: In vitro Caco-2 permeability; format: in vitro ADME; settings: human; Caco-2, 2 µM, 150 min; read-out: Efflux Ratio (B > A/A > B)
Method: as §1

[6] = 2 µM, 150 min, pH 7.4/7.4, n = 2
[7] = Caco-2, 2 µM, 150 min, pH 6.5/7.4, n = 2

Row | SMILES | CLint,app ([1]; human liver microsomes) [µL/min/mg] | T1/2,int ([1]; human liver microsomes) [min] | cell viability compared with Rosiglitazone [2] | Avg Papp A to B (MDCK-II monolayers; [6]) [×10⁻⁶ cm/s] | Avg Papp B to A (MDCK-II monolayers; [6]) [×10⁻⁶ cm/s] | Permeability Rank (MDCK-II monolayers; based on Papp,A-B) | Avg Papp A to B (Caco-2 monolayers; [7]) [×10⁻⁶ cm/s] | Avg Papp B to A (Caco-2 monolayers; [7]) [×10⁻⁶ cm/s] | Permeability Rank (Caco-2 monolayers; Caco-2, based on Papp,A-B) | half-life ([1]; human liver microsomes) [min] | viability at 1000 µM [3] [%] | Papp A→B at 150 min, 2 µM [4] [×10⁻⁶ cm/s] | Papp B→A at 150 min, 2 µM [4] [×10⁻⁶ cm/s] | Papp at 150 min, 2 µM [4] [×10⁻⁶ cm/s] | Papp A→B at 150 min, 2 µM [5] [×10⁻⁶ cm/s] | Papp B→A at 150 min, 2 µM [5] [×10⁻⁶ cm/s] | Papp at 150 min, 2 µM [5] [×10⁻⁶ cm/s] | efflux ratio at 150 min, 2 µM (P-gp) | microsomal CLint ([1]; human, liver microsomes, read-out: CLint,app) [µL/min/mg]
1 | CCCCNC(=O)CN1C(=O)S/C(=C\c2ccccc2)C1=O [1a] | 169.81 | 10.20 | did not show any significant difference | 1.8 | 2.5 | Low (Low, Papp,A-B < 5 × 10^−6 cm/sec) | 2.4 | 14.3 | Low (Low, Papp,A-B < 5 × 10^−6 cm/sec) |  |  |  |  |  |  |  |  |  | 
2 | CCN(CC)C(=O)CN1C(=O)S/C(=C\c2ccccc2)C1=O [1i] |  |  |  |  |  |  |  |  |  | 92.5 | 64 ± 3.93 | 16.3 | 11.9 | ≥ 5 | 23 | 51.2 | ≥ 5 | 2.7 | 
3 | CCCCNC(=O)CN1C(=O)S/C(=C\c2ccc(Cl)cc2)C1=O [3a] |  |  | did not show any significant difference |  |  |  |  |  |  | 53.3 |  | 0.8 | 0.4 | < 5 | 1.6 | 19.3 | < 5 | 3.2 | 32.5
